Key:
Experiment in all cases: FLIPR calcium assay, cells with promiscuous G protein transfected with bitter receptor cDNA
Assay type in all cases: cell-based
Conditions in all cases: responsive if cellular response of >10% over baseline, Fluo4-AM
[1] = molecular target: T1, T2R receptor SEQ ID NO: 2 (S2) (Homo sapiens, UniProt Q9NYW2)
T1 construct: expressed in transfected cells; host or cells: cells expressing a promiscuous G protein (e.g., G16g44)
T1 sequence (Q9NYW2 1-309): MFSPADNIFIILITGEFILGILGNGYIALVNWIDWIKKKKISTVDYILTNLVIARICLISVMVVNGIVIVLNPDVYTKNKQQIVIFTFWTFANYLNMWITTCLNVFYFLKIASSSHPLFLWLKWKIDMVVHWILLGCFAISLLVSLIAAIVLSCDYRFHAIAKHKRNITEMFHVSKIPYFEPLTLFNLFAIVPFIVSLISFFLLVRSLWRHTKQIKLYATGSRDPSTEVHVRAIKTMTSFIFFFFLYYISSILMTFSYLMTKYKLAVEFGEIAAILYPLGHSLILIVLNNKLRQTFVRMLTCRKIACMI
Method in brief: (§1)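 Fluo4-AM calcium imaging on FLIPR, agonist added during recording. Host: G16g44 cells, one receptor cDNA per transfection, 28 h culture. Activity cutoff >10% over baseline.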

[2] = molecular target: T2, T2R receptor SEQ ID NO: 3 (S3) (Homo sapiens, UniProt Q9NYW0, T156M)
T2 construct: expressed in transfected cells; host or cells: cells expressing a promiscuous G protein (e.g., G16g44)
T2 sequence (Q9NYW0 1-307 T156M): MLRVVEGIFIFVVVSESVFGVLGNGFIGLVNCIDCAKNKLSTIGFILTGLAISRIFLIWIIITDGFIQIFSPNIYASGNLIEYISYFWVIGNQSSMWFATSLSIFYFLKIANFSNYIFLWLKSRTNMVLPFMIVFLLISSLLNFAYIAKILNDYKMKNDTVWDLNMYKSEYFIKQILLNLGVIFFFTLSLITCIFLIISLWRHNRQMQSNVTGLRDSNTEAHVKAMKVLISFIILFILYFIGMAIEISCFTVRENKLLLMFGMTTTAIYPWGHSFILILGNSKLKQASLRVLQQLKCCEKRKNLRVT
Method in brief: as §1

[3] = molecular target: T3, T2R receptor SEQ ID NO: 4 (S4) (Homo sapiens, UniProt Q9NYV8)
T3 construct: expressed in transfected cells; host or cells: cells expressing a promiscuous G protein (e.g., G16g44)
T3 sequence (Q9NYV8 1-317): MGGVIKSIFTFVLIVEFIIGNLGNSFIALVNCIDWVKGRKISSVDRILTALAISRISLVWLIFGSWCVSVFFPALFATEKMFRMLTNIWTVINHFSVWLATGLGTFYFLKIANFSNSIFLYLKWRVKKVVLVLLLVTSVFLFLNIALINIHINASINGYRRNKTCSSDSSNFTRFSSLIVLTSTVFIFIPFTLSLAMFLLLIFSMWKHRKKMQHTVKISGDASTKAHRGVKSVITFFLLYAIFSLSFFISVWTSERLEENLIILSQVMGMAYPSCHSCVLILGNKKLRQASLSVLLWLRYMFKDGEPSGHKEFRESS
Method in brief: as §1

[4] = molecular target: T4, T2R receptor SEQ ID NO: 6 (S6) (Homo sapiens, UniProt P59540)
T4 construct: expressed in transfected cells; host or cells: cells expressing a promiscuous G protein (e.g., G16g44)
T4 sequence (P59540 1-309): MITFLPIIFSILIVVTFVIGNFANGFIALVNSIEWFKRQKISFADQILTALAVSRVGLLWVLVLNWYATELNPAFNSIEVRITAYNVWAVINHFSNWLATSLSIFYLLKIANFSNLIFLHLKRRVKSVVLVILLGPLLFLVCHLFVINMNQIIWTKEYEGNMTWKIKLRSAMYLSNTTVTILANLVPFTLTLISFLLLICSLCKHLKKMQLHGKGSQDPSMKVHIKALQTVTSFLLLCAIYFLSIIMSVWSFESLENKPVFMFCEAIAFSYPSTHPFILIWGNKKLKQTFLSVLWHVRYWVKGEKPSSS
Method in brief: as §1

[5] = molecular target: T5, T2R receptor SEQ ID NO: 1 (S1) (Homo sapiens, UniProt Q9NYW7)
T5 construct: expressed in transfected cells; host or cells: cells expressing a promiscuous G protein (e.g., G16g44)
T5 sequence (Q9NYW7 1-299): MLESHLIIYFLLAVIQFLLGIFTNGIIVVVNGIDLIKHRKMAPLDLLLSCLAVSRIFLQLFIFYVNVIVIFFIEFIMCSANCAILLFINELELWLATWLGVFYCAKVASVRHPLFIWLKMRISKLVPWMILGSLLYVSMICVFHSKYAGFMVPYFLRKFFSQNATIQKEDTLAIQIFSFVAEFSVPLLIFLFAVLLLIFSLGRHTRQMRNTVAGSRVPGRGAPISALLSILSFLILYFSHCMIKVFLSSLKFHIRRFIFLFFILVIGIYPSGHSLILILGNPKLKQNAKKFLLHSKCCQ
Method in brief: as §1

Structure (SMILES)	S2 positive response of T2R receptor to API [1]	S3 positive response of T2R receptor to API [2]	S4 positive response of T2R receptor to API [3]	S6 positive response of T2R receptor to API [4]	S1 positive response of T2R receptor to API [5]
COc1ccc2nc([S@@+]([O-])Cc3ncc(C)c(OC)c3C)[nH]c2c1 [Esomeprazole]	+ (a “+” to indicate whether a particular T2R receptor showed a positive response to a particular API)	+ (a “+” to indicate whether a particular T2R receptor showed a positive response to a particular API)	+ (a “+” to indicate whether a particular T2R receptor showed a positive response to a particular API)	+ (a “+” to indicate whether a particular T2R receptor showed a positive response to a particular API)	–
C[C@H]1O[C@@H](O[C@H]2[C@@H](O)C[C@H](O[C@H]3[C@@H](O)C[C@H](O[C@H]4CC[C@@]5(C)[C@H](CC[C@@H]6[C@@H]5C[C@@H](O)[C@]5(C)[C@@H](C7=CC(=O)OC7)CC[C@]65O)C4)O[C@@H]3C)O[C@@H]2C)C[C@H](O)[C@@H]1O [Digoxin]	+ (a “+” to indicate whether a particular T2R receptor showed a positive response to a particular API)	+ (a “+” to indicate whether a particular T2R receptor showed a positive response to a particular API)	+ (a “+” to indicate whether a particular T2R receptor showed a positive response to a particular API)	+ (a “+” to indicate whether a particular T2R receptor showed a positive response to a particular API)	–
CCN[C@H]1CN(CCCOC)S(=O)(=O)c2sc(S(N)(=O)=O)cc21 [Brinzolamide]	+ (a “+” to indicate whether a particular T2R receptor showed a positive response to a particular API)	+ (a “+” to indicate whether a particular T2R receptor showed a positive response to a particular API)	–	+ (a “+” to indicate whether a particular T2R receptor showed a positive response to a particular API)	+ (a “+” to indicate whether a particular T2R receptor showed a positive response to a particular API)
NCC1(CC(=O)O)CCCCC1 [Gabapentin]	+ (a “+” to indicate whether a particular T2R receptor showed a positive response to a particular API)	+ (a “+” to indicate whether a particular T2R receptor showed a positive response to a particular API)	–	–	–
CCCCC(CC)COC(=O)CC(C(=O)OCC(CC)CCCC)S(=O)(=O)O (centres unmarked) [Docusate]	+ (a “+” to indicate whether a particular T2R receptor showed a positive response to a particular API)	–	+ (a “+” to indicate whether a particular T2R receptor showed a positive response to a particular API)	–	+ (a “+” to indicate whether a particular T2R receptor showed a positive response to a particular API)
CCN[C@H]1C[C@H](C)S(=O)(=O)c2sc(S(N)(=O)=O)cc21 [Dorzolamide]	+ (a “+” to indicate whether a particular T2R receptor showed a positive response to a particular API)	+ (a “+” to indicate whether a particular T2R receptor showed a positive response to a particular API)	–	+ (a “+” to indicate whether a particular T2R receptor showed a positive response to a particular API)	+ (a “+” to indicate whether a particular T2R receptor showed a positive response to a particular API)
CCn1cc(C(=O)O)c(=O)c2cc(F)c(N3CCNC(C)C3)c(F)c21 (centres unmarked) [Lomefloxacin]	+ (a “+” to indicate whether a particular T2R receptor showed a positive response to a particular API)	–	–	+ (a “+” to indicate whether a particular T2R receptor showed a positive response to a particular API)	–
